These are literature values, as cited in US20080213433A1, “Fluid compositions comprising polyphenols and methods for making and packaging the same” (priority 2006, published 2008).

Each structure is given as a SMILES string.

Data set [1] has as its target T1, SIRT1 (Homo sapiens, UniProt Q96EB6).
T1 sequence (Q96EB6 1-747): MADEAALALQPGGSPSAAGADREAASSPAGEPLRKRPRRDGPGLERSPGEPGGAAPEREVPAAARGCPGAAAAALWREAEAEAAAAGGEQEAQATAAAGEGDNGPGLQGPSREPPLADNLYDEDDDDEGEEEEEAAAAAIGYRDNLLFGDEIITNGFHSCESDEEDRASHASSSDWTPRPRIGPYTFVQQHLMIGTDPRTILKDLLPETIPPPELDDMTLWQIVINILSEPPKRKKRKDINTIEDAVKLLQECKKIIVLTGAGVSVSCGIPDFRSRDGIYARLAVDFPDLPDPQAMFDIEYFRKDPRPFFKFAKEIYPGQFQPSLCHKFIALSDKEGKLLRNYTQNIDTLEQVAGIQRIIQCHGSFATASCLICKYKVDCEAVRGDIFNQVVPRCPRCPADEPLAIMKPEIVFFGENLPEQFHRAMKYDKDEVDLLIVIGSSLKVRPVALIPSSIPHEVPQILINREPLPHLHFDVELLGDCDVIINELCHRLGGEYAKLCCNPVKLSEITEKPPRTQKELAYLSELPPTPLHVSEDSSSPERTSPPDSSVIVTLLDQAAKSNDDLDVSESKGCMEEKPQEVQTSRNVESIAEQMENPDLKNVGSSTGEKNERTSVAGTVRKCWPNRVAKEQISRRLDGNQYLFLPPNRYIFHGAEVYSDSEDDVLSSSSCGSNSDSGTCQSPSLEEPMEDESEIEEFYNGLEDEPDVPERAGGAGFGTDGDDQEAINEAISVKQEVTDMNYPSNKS
The following applies: sirtuin enzyme; cis-isomer compared to trans-resveratrol.

For data set [2] the following is noted: β-glucosidases in the human intestines hydrolyze piceid and release free trans-resveratrol.

For `Oc1ccc(/C=C/c2cc(O)cc(O)c2)cc1` [Trans-resveratrol], the “stimulation / activation of SIRT1” value in data set [1] was “stimulate”. As for `Oc1ccc(/C=C\c2cc(O)cc(O)c2)cc1` [Cis-resveratrol], the “stimulation / activation of SIRT1” value in data set [1] was “considerably less efficacy”. For `OCC1OC(Oc2cc(O)cc(/C=C/c3ccc(O)cc3)c2)C(O)C(O)C1O` (stereo not drawn) [piceid, 2-[3-hydroxy-5-[(E)-2-(4-hydroxyphenyl)ethenyl]phenoxy]-6-(hydroxymethyl)oxane-3,4,5-triol], the “bioavailability of trans-resveratrol derived from the β-glucosidic form vs the free form in solution” value in data set [2] was “equivalent”.
